Measurements published in article PMC10953011, “Oxygen‐insensitive nitroreductase E. coli NfsA, but not NfsB, is inhibited by fumarate” (Proteins, 2022).

Columns and labels:
[1] = biological target: T1, NfsA (Escherichia coli, UniProt P17117); assay: steady-state inhibition kinetics with nitrofurazone and NADPH, […] nm; format: biochemical; set-up: untagged full-length
T1 sequence (P17117 1-240): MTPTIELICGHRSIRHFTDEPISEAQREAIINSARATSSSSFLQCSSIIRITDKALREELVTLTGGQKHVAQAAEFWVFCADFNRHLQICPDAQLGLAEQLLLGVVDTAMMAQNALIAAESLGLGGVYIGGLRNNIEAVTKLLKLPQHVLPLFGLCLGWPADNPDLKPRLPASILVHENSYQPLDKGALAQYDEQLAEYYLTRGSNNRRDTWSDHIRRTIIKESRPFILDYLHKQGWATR

[2] = biological target: T1, NfsA; assay: X-ray crystal structure ([…] Å); steady-state inhibition kinetics with nitrofurazone and NADPH; format: biochemical; set-up: untagged full-length, 240 residues, dimer

SMILES | Ki [1] [µM] | Ki [2] [µM]
O=C(O)CCC(=O)O [succinate] | 4300 ± 600 | 
O=C(O)/C=C/C(=O)O [fumarate] |  | 145 ± 28
